Test results from ChEMBL document CHEMBL1777811, “Actin depolymerizing effect of trisoxazole-containing macrolides” (2011).
Values belong to the compound of their own block, whether it stands above or below them. Calls of active or inactive are those of the source. No cut-off for these calls is given here.

What was measured:
Trichophyton rubrum = experiment: Antifungal activity against Trichophyton rubrum IFO 9185 after 48 to72 hrs by twofold serial dilution method; type: functional
Aspergillus fumigatus = experiment: Antifungal activity against Aspergillus fumigatus HIC 6094 after 48 to72 hrs by twofold serial dilution method; type: functional
[1] = test system: Trichophyton mentagrophytes; experiment: Antifungal activity against Trichophyton mentagrophytes IFO 40996 after 48 to72 hrs by twofold serial dilution method; type: functional
Candida albicans = experiment: Antifungal activity against Candida albicans ATCC 10231 after 48 to72 hrs by twofold serial dilution method; type: functional
Bacillus subtilis = experiment: Antibacterial activity against Bacillus subtilis ATCC 6633 at 100 ug/ml after 24 hrs by twofold serial dilution method; type: functional, organism-based
Proteus vulgaris = experiment: Antibacterial activity against Proteus vulgaris ATCC 3851 at 100 ug/ml after 24 hrs by twofold serial dilution method; type: functional, organism-based
Escherichia coli = experiment: Antibacterial activity against Escherichia coli ATCC 25922 at 100 ug/ml after 24 hrs by twofold serial dilution method; type: functional, organism-based
[2] = Induction of depolymerization of F-actin at 112 uM by fluorimetry relative to control
Staphylococcus aureus [3] = experiment: Antibacterial activity against Staphylococcus aureus IFO 12708 at 100 ug/ml after 24 hrs by twofold serial dilution method; type: functional, organism-based
Salmonella typhimurium = experiment: Antibacterial activity against Salmonella Typhimurium ATCC 14028 at 100 ug/ml after 24 hrs by twofold serial dilution method; type: functional, organism-based; conditions: Salmonella enterica subsp. enterica serovar Typhimurium
Staphylococcus aureus [4] = experiment: Antibacterial activity against Staphylococcus aureus ATCC 6538p at 100 ug/ml after 24 hrs by twofold serial dilution method; type: functional, organism-based
[5] = Induction of depolymerization of F-actin by fluorimetry
[6] = Induction of depolymerization of F-actin at 1.82 uM by fluorimetry relative to control
[7] = Induction of depolymerization of F-actin at 14 to 114 uM by fluorimetry relative to control
[8] = Induction of depolymerization of F-actin at 7.28 uM by fluorimetry relative to control
[9] = Induction of depolymerization of F-actin at 15 to 120 uM by fluorimetry relative to control

MIC (Trichophyton rubrum): 0.84 µM | MIC (Aspergillus fumigatus): 0.84 µM | MIC [1]: 0.84 µM | MIC (Candida albicans): 0.22 µM
SMILES: C[C@@H]1[C@H](O)[C@@H](C)/C=C/C=C/C=C/C=C/C=C/C=C/C=C/[C@H](O[C@@H]2O[C@H](C)[C@@H](O)[C@H](N)[C@@H]2O)C[C@@H]2O[C@](O)(C[C@@H](O)C[C@@H](O)[C@H](O)CC[C@@H](O)C[C@@H](O)CC(=O)O[C@H]1C)C[C@H](O)[C@H]2C(=O)O [AMPHOTERICIN B]

SMILES: COC(=O)c1coc(/C=C/CCC(C)C(CC(OC)C(C)CCC(=O)C(C)C(C/C=C/N(C)C=O)OC)OC(=O)CC(O)C/C=C/C(=O)C(C)C(OC)c2coc(C(N)=O)n2)n1 (stereo unspecified) [HALISHIGAMIDE D]
Activity (Bacillus subtilis): inactive | MIC (Trichophyton rubrum): > 100 µg/mL | MIC (Aspergillus fumigatus): > 100 µg/mL | MIC [1]: > 100 µg/mL | MIC (Candida albicans): > 100 µg/mL | Activity (Proteus vulgaris): inactive | Activity (Escherichia coli): inactive | Activity [2]: 40% | Activity (Staphylococcus aureus [3]): inactive | Activity (Salmonella typhimurium): inactive | Activity (Staphylococcus aureus [4]): inactive

SMILES: COC(CC1OC(=O)CC(O)C/C=C\C(=O)C(C)C(OC)c2coc(n2)-c2coc(n2)-c2coc(n2)/C=C\CCC1C)C(C)CCC(=O)C(C)C(C/C=C/N(C)C=O)OC (stereo unspecified)
Activity (Bacillus subtilis): inactive | MIC (Trichophyton rubrum): 7.27 µM | MIC (Aspergillus fumigatus): 14.6 µM | Activity [5]: Dose-dependent effect | MIC [1]: 14.6 µM | MIC (Candida albicans): 0.91 µM | Activity [6]: > 90% | Activity (Proteus vulgaris): inactive | Activity (Escherichia coli): inactive | Activity (Staphylococcus aureus [3]): inactive | Activity (Salmonella typhimurium): inactive | Activity (Staphylococcus aureus [4]): inactive

SMILES: COC(CC1OC(=O)CC(O)CC(O)CC(=O)C(C)C(OC)c2coc(n2)-c2coc(n2)-c2coc(n2)/C=C/CCC1C)C(C)CCC(=O)C(C)C(C/C=C/N(C)C=O)OC (stereo unspecified) [JASPISAMIDE A]
Activity (Bacillus subtilis): inactive | MIC (Trichophyton rubrum): > 100 µg/mL | MIC (Aspergillus fumigatus): > 100 µg/mL | MIC [1]: > 100 µg/mL | MIC (Candida albicans): > 100 µg/mL | Activity (Proteus vulgaris): inactive | Activity (Escherichia coli): inactive | Activity [7]: inactive | Activity (Staphylococcus aureus [3]): inactive | Activity (Salmonella typhimurium): inactive | Activity (Staphylococcus aureus [4]): inactive

SMILES: COC(CC1OC(=O)CC(O)C/C=C/C(=O)C(C)C(OC)c2coc(n2)-c2coc(n2)-c2coc(n2)/C=C/CCC1C)C(C)CCC(=O)C(C)C(C/C=C/N(C)C=O)OC (stereo unspecified) [HALICHONDRAMIDE]
Activity (Bacillus subtilis): inactive | MIC (Trichophyton rubrum): 0.48 µM | MIC (Aspergillus fumigatus): 0.45 µM | Activity [5]: Dose-dependent effect | MIC [1]: 0.91 µM | MIC (Candida albicans): 0.23 µM | Activity (Proteus vulgaris): inactive | Activity (Escherichia coli): inactive | Activity [8]: > 90% | Activity (Staphylococcus aureus [3]): inactive | Activity (Salmonella typhimurium): inactive | Activity (Staphylococcus aureus [4]): inactive

Activity [9]: inactive | MIC (Trichophyton rubrum): > 100 µg/mL | MIC (Aspergillus fumigatus): > 100 µg/mL | MIC [1]: > 100 µg/mL | MIC (Candida albicans): > 100 µg/mL
SMILES: COC(CC1OC(=O)CC(O)/C=C/CC(=O)C(C)C(OC)c2coc(n2)-c2coc(n2)-c2coc(n2)/C=C/CCC1C)C(C)CCC(=O)C(C)C(C/C=C/N(C)C=O)OC (stereo unspecified) [NEOHALICHONDRAMIDE]
Activity (Bacillus subtilis): inactive | Activity (Proteus vulgaris): inactive | Activity (Escherichia coli): inactive | Activity (Staphylococcus aureus [3]): inactive | Activity (Salmonella typhimurium): inactive | Activity (Staphylococcus aureus [4]): inactive
